Reference: patent US20040171086A1, “Selective modulation of TLR-mediated biological activity” (3M Innovative Properties Company, priority 2003, published 2004)

biological target: T1, TLR7 (Homo sapiens, UniProt Q9NYK1); test: NFκB-luciferase reporter assay in HEK293 cells transfected with human TLR7 (HEK293-TLR7); format: cell-based; parameters: expressed in transfected cells; host or cells: HEK293 (ATCC CRL-1573), pIRES vector, G-418 selected; details: HEK293-TLR7, 10 μM IRM, 16 hours
T1 sequence (Q9NYK1 27-1049): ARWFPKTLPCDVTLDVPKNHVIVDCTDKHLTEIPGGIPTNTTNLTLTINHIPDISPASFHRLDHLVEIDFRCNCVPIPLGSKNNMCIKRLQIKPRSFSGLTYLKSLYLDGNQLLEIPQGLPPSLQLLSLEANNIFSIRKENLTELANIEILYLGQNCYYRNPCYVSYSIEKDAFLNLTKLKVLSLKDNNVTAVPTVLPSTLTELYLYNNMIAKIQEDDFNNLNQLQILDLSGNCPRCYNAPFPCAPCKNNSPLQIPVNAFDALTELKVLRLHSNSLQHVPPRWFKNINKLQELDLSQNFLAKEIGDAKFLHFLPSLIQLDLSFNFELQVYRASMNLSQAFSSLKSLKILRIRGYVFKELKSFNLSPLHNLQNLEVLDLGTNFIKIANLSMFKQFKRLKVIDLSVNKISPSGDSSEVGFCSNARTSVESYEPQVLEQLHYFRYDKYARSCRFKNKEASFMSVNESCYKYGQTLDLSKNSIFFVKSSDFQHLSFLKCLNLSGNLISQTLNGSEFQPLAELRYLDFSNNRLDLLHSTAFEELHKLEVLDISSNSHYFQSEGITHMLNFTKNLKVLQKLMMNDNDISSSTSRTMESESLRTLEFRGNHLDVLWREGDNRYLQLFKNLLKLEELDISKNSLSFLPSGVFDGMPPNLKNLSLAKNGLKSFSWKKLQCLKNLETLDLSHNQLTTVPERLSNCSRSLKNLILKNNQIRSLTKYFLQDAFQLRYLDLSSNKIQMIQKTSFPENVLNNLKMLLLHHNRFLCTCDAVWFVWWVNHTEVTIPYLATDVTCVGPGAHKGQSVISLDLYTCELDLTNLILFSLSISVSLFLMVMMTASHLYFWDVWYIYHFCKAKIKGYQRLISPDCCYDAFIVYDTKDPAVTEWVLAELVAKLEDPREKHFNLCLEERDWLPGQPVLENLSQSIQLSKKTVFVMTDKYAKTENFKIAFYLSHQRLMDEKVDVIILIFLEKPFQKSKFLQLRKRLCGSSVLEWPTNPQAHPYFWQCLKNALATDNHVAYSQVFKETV
Protocol: A compound was identified as increasing cellular activity mediated through a given TLR if it induced at least a two-fold increase in NFκB-induced luciferase signal compared to the control.
HEK293 medium was prepared from 90% Minimum Essential Medium (MEM) with 2 mM L-glutamine and Earle's Balanced Salt Solution (Invitrogen Corp., Rockville, Md.) adjusted to contain 1.5 g/L sodium bicarbonate, 0.1 mM non-essential amino acids, and 1.0 mM sodium pyruvate; 10% heat-inactivated fetal calf serum. HEK293 cells were cultured by incubating cells in HEK293 medium overnight at 37° C., 8% CO2.
The cells were co-transfected with (1) pIRES (BD Biosciences Clontech, Palo Alto, Calif.) either (a) unmodified (HEK293-vector), (b) containing an expressible human TLR7 gene (HEK293-TLR7), or (c) containing an expressible human TLR8 gene (HEK293-TLR8), and (2) NFκB-luc reporter (Stratagene, La Jolla, Calif.) in a 10:1 ratio with Fugene 6 transfection reagent (Roche Diagnostics Corp., Indianapolis, Ind.) following the manufacturer's instructions.
The cells were stimulated with 1 μL of IRM compounds at 1 mM in DMSO (final IRM concentration of 10 μM) or 1 μL DMSO as a control. The plates were then incubated an additional 16 hours at 37° C., 5% CO2. The luciferase signal was read using the LucLite kit (Packard Instrument Co., Meriden, Conn.). Luminescence was measured on an LMAX luminometer (Molecular Devices Corp., Sunnyvale, Calif.).

TLR7: fold increase of NFκB-induced luciferase signal compared to a DMSO control | Compound
7.08 fold increase | CCC(C)NC(=S)NCCn1c(CCOC)nc2c(N)nc3ccccc3c21 (stereo not drawn) [IRM21, N-{2-[4-amino-2-(2-methoxyethyl)-1H-imidazo[4,5-c]quinolin-1-yl]ethyl}-N′-sec-butylthiourea]
6.57 fold increase | COCCc1nc2c(N)nc3c(c2n1CC(C)(C)NS(C)(=O)=O)CCCC3 [IRM22, N-{2-[4-amino-2-(2-methoxyethyl)-6,7,8,9-tetrahydro-1H-imidazo[4,5-c]quinolin-1-yl]-1,1-dimethylethyl}methanesulfonamide]
2.45 fold increase | COCCc1nc2c(N)nc3ccccc3c2n1CCOCCNC(=O)Nc1ccccc1 [IRM19, N-(2-{2-[4-amino-2-(2-methoxyethyl)-1H-imidazo[4,5-c]quinolin-1-yl)ethoxy}ethyl)-N′-phenylurea]

More lines, now with the values behind:

Compound | TLR7: fold increase of NFκB-induced luciferase signal compared to a DMSO control
CCc1nc2c(N)nc3ccccc3c2n1CCCCSc1cc(Cl)cc(Cl)c1 [IRM14, 1-{4-[(3,5-dichlorophenyl)thio]butyl}-2-ethyl-1H-imidazo[4,5-c]quinolin-4-amine] | 0.67 fold increase
CCOCc1nc2c(N)nc3ccccc3c2n1CC(C)C [IRM1, 2-(ethoxymethyl)-1-(2-methylpropyl)-1H-imidazo[4,5-c]quinolin-4-amine] | 4.05 fold increase
CCc1nc2c(N)nc3ccccc3c2n1CCCCNC(=O)C1CCCCC1 [IRM8, N-[4-(4-amino-2-ethyl-1H-imidazo[4,5-c]quinolin-1-yl)butyl]cyclohexanecarboxamide] | 6.04 fold increase
COCCc1nc2c(N)nc3ccccc3c2n1CCOCCN(C)C(=O)C1CCCCC1 [IRM3, N-(2-{2-[4-amino-2-(2-methoxyethyl)-1H-imidazo[4,5-c]quinolin-1-yl]ethoxy}ethyl)-N-methylcyclohexanecarboxamide] | 6.37 fold increase
CCCCc1nc2c(N)nc3ccccc3c2n1CCCCCS(C)(=O)=O [IRM6, 2-butyl-1-[5-(methylsulfonyl)pentyl]-1H-imidazo[4,5-c]quinolin-4-amine] | 8.46 fold increase
CCOCc1nc2c(N)nc3c(c2n1CC(C)(C)O)CCCC3 [IRM16, 4-amino-2-ethoxymethyl-α,α-dimethyl-6,7,8,9-tetrahydro-1H-imidazo[4,5-c]quinoline-1-ethanol] | 5.54 fold increase
